In experiment [1] the test system is loss of the righting reflex (RR) in mice. The experiment can be described thus: Loss of the righting reflex assay in mice. The experiment is classed as in vivo, mouse. The settings on record: icv. On the procedure: All of the experimental procedures adopted in the in vivo studies comply with the European Directive 2010/63/EU on protecting animals used for scientific purposes and Italian Legislative Decree no. 26 of March 4, 2014. These experiments were approved by the Animal Welfare Body of the University of Ferrara and by the Ministry of Health (authorization number 677/2024-PR). In vivo studies have been reported following ARRIVE guidelines. All experiments were conducted with mice bred and housed in the University of Ferrara’s animal facility under specific pathogen-free conditions. All mice were housed in cages with individual ventilation, with a constant temperature of 21 °C, 60% humidity, and a 12 h light/dark cycle. Food and water were provided ad libitum. CD-1 male and female mice, aged 2 to 4 months, were used. Details about the generation of NOP(−/−) and NOP(+/+) mice have been published previously; , these mice have been backcrossed on CD-1 strain in our laboratories. NOP(+/+) and NOP(−/−) littermates were obtained by mating with NOP(±) mice. All mice were genotyped using the polymerase chain reaction previously described. All mice were used only once. The RR assay was performed as previously described. […] Diazepam 15 mg/kg was injected ip. When the animals lost RR, they were placed in a plastic cage, and the time was recorded by an expert observer, blind to drug treatments and/or genotype. Animals were judged to have regained the RR response when they could correct themselves three times within 30 s. Sleeping time is defined as the amount of time between the loss and regaining of the RR; it was rounded to the nearest minute.
(§1) Concentration-response curves to agonists were analyzed by a four-parameter logistic nonlinear regression model: Effect = baseline + (E max – baseline)/(1 + 10^((logEC50–log[ligand])slope)). […] Experimental data were expressed as mean ± sem of at least 5 experiments. Potency values were expressed as the mean and CL95%. In vitro E max values were analyzed by one-way ANOVA, while in vivo latency data were evaluated by one-way ANOVA followed by Dunnett’s post hoc test. The proportion of mice losing the righting reflex was compared by Fisher’s exact test performed on raw data. GraphPad Prism 10.0 software was used for all of the analyses. The terminology employed is consistent with the International Union of Basic and Clinical Pharmacology (IUPHAR) recommendations. ,

The next experiment concerns the target human NOP (Homo sapiens, UniProt P41146). In words: NOP receptor–G protein interaction BRET assay. The format is biochemical. Also on record: expressed in transfected cells; host or cells: membranes of HEK293 cells stably coexpressing NOP-RLuc and Gβ1-RGFP. As to conditions: N = 5 experiments in duplicate. On the procedure:
A BRET interaction assay was used, as previously detailed in ref , to study the propensity of ligands to evoke interaction between the NOP receptor and to G protein. Membranes taken from HEK293 cells stably coexpressing the fusoproteins NOP-RLuc and Gβ1-RGFP were used. Such cells were grown in DMEM medium supplemented with 10% FBS, 2 mM L-glutamine, […] G418, […] hygromycin B, 100 IU/mL penicillin, and 100 IU/mL streptomycin in a humidified atmosphere with 5% CO2 at 37 °C. Cell membranes were thawed and resuspended in PBS supplemented with 0.01% BSA before the assay, and an amount of 3 μg of total protein was dispensed in each of the 96 wells together with 2 μM Prolume Purple Coelenterazine. All experiments were carried out at room temperature. Ligands were added, and averaged BRET ratios from 10 min measurements were computed. BRET ratios were computed as counts per second (CPS) obtained on a Victor Nivo (PerkinElmer) with 405 (10) nm and 510 (30) nm bandpass filters. Vehicles’ BRET ratios were derived from light passed through 510 divided by that passed through 405 filters. Vehicles BRET values were subtracted from all computations, and data sets were normalized as a fraction of N/OFQ maximal effects.
as §1

Experiment [2] relates to mouse vas deferens from NOP(−/−) mice. The experiment can be described thus: Electrically stimulated mouse vas deferens bioassay, NOP(−/−) tissues. As to conditions: mVD from CD-1 NOP(−/−) mice; 5 experiments. On the procedure: (§2) This study was approved by the Animal Welfare Body of the University of Ferrara and by the Italian Ministry of Health (authorization number CBCC2.N.BXI). Experiments were performed on an isolated mouse vas deferens. All experiments were conducted with mice bred and housed in the University of Ferrara’s animal facility under specific pathogen-free conditions (SPF). All mice were housed in cages with individual ventilation, with a constant temperature of 21 °C, 60% humidity, and a 12 h light/dark cycle. Food and water were provided ad libitum. CD-1 NOP(+/+) and CD-1 NOP(−/−) male mice, aged 9 to 12 months, were used. Animals were sacrificed on the day of the experiment with CO2 overdose. Bioassay experiments were performed as previously described. The tissues were suspended in 5 mL organ bath containing Krebs solution (NaCl 118.5 […]). The Krebs solution was oxygenated with 95% O2 and 5% CO2 and the temperature set at 33 °C with a resting tension of 0.3 g applied to the tissues. Tissues were stimulated through two platinum electrodes with a supramaximal rectangular pulse of 1 ms duration, 0.05 Hz frequency, and 80 V of amplitude. The electrically evoked contractions were measured isotonically by means of Basile strain gauge transducers (Basile, IT) and a recorder with a Power Lab 8 instrument (ADInstruments, CO, U.S.). Following an equilibration period of approximately 60 min, the contractions induced by electrical field stimulation were stable. At this time, cumulative concentration response curves were carried out.
Concentration-response curves to agonists were analyzed by a four-parameter logistic nonlinear regression model: Effect = baseline + (E max – baseline)/(1 + 10^((logEC50–log[ligand])slope)). […] Experimental data were expressed as mean ± sem of at least 5 experiments. Potency values were expressed as the mean and CL95%. In vitro E max values were analyzed by one-way ANOVA, while in vivo latency data were evaluated by one-way ANOVA followed by Dunnett’s post hoc test. […]

Experiment [3] relates to mouse vas deferens from NOP(+/+) mice. The experiment can be described thus: Electrically stimulated mouse vas deferens bioassay, NOP(+/+) tissues. Here is the method: as §2, §1

The structures appear in SMILES notation. Values joined by “and” are separate entries in the source; they are usually repeats but may differ in a detail not shown here. Equal values may be shown once. Bridge positions count the residues as written; N and C are the ends. Peptide text beside a SMILES is read from it. I, II: the chains in the order shown.

Regarding `C[C@H](NC(=O)CNC(=O)[C@@H](NC(=O)[C@H](Cc1ccccc1)NC(=O)CNC(=O)CNC(=O)[C@@H](N)Cc1ccccc1)[C@@H](C)O)C(=O)N[C@@H](CCCNC(=N)N)C(=O)N[C@@H](CCCCN)C(=O)N[C@@H](CO)C(=O)N[C@@H](C)C(=O)N[C@@H](CCCNC(=N)N)C(=O)N[C@@H](CCCCN)C(=O)N[C@@H](CSSC[C@H](NC(=O)[C@H](CCCCN)NC(=O)[C@H](CCCNC(=N)N)NC(=O)[C@H](C)NC(=O)[C@H](CO)NC(=O)[C@H](CCCCN)NC(=O)[C@H](CCCNC(=N)N)NC(=O)[C@H](C)NC(=O)CNC(=O)[C@@H](NC(=O)[C@H](Cc1ccccc1)NC(=O)CNC(=O)CNC(=O)[C@@H](N)Cc1ccccc1)[C@@H](C)O)C(=O)N[C@@H](C)C(=O)N[C@@H](CC(N)=O)C(=O)N[C@@H](CCC(N)=O)C(N)=O)C(=O)N[C@@H](C)C(=O)N[C@@H](CC(N)=O)C(=O)N[C@@H](CCC(N)=O)C(N)=O` [1h, [[Cys^14]N/OFQ-NH2]2] (I: H-FGGFTGARKSARKCANQ-NH2 / II: H-FGGFTGARKSARKCANQ-NH2; disulfide I:14-II:14; N-terminus assumed), the “mice that lost the RR, 3 nmol” value in experiment [1] (3 nmol, CD-1 mice, N = 8–10 per group) is 75%. For the same molecule, the “mice that lost the RR, 10 nmol” value in experiment [1] (10 nmol, CD-1 mice, N = 8–10 per group) is reported as “all mice”. Moreover, the “sleep duration (interval between loss and recovery of the RR)” value in experiment [1] (3 and 10 nmol, only mice that lost the RR, experimental cutoff 420 min) is at least 420 min. Further, in experiment [1] (mice, vs N/OFQ (and N/OFQ-NH2)), the “potency in eliciting loss of the RR relative to N/OFQ” value was 3 fold. The “duration of the effect on RR” value in experiment [1] (experimental cutoff 7 h) is listed as at least 7 h. The “NOP–G protein interaction E max ± sem” value at human NOP (effects normalized to N/OFQ-NH2 (E max = 1), mean ± sem) was 0.80 ± 0.08. Besides, the EC50 at human NOP (membranes from HEK293 cells coexpressing NOP-RLuc and Gβ1-RGFP, room temperature, mean (CL95%), read-out: NOP–G protein interaction pEC50 (CL95%) (converted)) is < 1 nM and 0.123 nM. For the same molecule, the “effect in mVD tissues from NOP(−/−) mice (in words)” value in experiment [2] is recorded as “no effect”. Besides, the “potency (pEC50) for inhibition of electrically induced contractions” value in experiment [3] (mVD from CD-1 NOP(+/+) mice, 33 °C, mean (CL95%), 5 experiments) was 6.79 (6.02–7.56). Also, the “decrease in mVD potency compared to N/OFQ” value in experiment [3] (mVD, vs N/OFQ) was “approximately 3 fold”. In addition, the “kinetics of action in mVD (in words)” value in experiment [3] (onset and reversibility upon washout) is “fully and rapidly reversible upon washout”.
